Non-standard residues stand in square brackets, D forms with d. Residues, ends and D or L forms follow the SMILES beside them. ξ: configuration not given here. *: point of attachment. AFC = O=c1cc(C(F)(F)F)c2ccc(N*)cc2o1; AMC = Cc1cc(=O)oc2cc(N*)ccc12; Cbz = O=C(OCc1ccccc1)*; ξP = O=C(O)C1CCCN1
Assays:
Format in all cases: biochemical
DPP-4 [1] = target: T1, DPP-4 (Homo sapiens, UniProt P27487); assay: Relative cleavage rates of coumarin (AMCC) dipeptide substrates by DPP-4; design: DPP-4 (amino acids 39-766); FLAG (N); made in house; host or cells: 293 cells (secreted, purified from serum-free conditioned media); conditions: for relative cleavage rate by DPP-4: N-blocked Gly-Pro-AMCC substrates 6, normalized to N-unblocked Gly-Pro-AMCC; for relative cleavage rate by DPP-4 / cleavage of N-substituted-Gly-Pro-AMCC substrates by DPP-4 (in words): DPP-4 6.8 nM; for cleavage of N-substituted-Gly-Pro-AMCC substrates by DPP-4 (in words): substrate concentrations up to 1 mM
Experimental: (§1) The relative cleavage rates of a variety of N-blocked, C-terminal coumarin (AMCC) Gly-Pro dipeptide substrates 6 were measured. The rates were normalized to N-unblocked Gly-Pro-AMCC for FAP and DPP-4.
(§2) To examine whether FAP could cleave other N-substituted-Gly-Pro-based substrates, N-methyl-, formyl-, succinyl-, benzyloxycarbonyl-(Z-) and biotinyl-Gly-Pro-AMCC substrates 6 were synthesized and reacted with FAP (37 nM) and DPP-4 (6.8 nM).
(§3) Amino-terminus P2 was varied with the L-amino acids: alanine, aspartic acid, glutamic acid, phenylalanine, glycine, histidine, isoleucine, lysine, leucine, methionine, asparagine, proline, glutamine, arginine, serine, threonine, valine, tryptophan, and tyrosine (from left). AMCC=2-(7-amino-4-methyl-2-oxo-2H-chromen-3-yl)acetamide. For both enzymes, the amino acid adjacent in the model dipeptide substrate had little effect where the amino-terminus was unblocked. Hydrolysis rates of other P2-Pro-AMCC substrates by FAP and DPP-4 relative to Gly-Pro-AMCC include the following in Table 6:
(§4) Protease Assays—Protease activity was monitored continuously using a SpectraMax M2 microplate reader (Molecular Devices Corp., Sunnyvale Calif.) in the kinetic mode. Assays were conducted at 23° C. in 50 mM Tris (pH 7.4), 100 mM NaCl, 1 mM EDTA. The excitation/emission wavelengths for the different fluorogenic substrates were 360/460 nm (AMC), 400/505 nm (AFC), 340/425 nm (MNA), 340/510 nm (EDANS), and 337/425 nm (Abs). Standard curves of the appropriate fluorescent product versus concentration were used to convert relative fluorescence units to nmol of product produced. Substrates in the X-Pro-AMC library were used in rate assays at 5 μM final concentration. […] The kinetic parameters were calculated from Michaelis-Menten plots (V0 versus [S]) with nonlinear regression analysis using GraphPad software. kcat values were calculated under the assumption that each protease was 100% active.

FAP [2] = target: T2, FAP (Homo sapiens, UniProt Q12884); assay: Relative cleavage rates of coumarin (AMCC) dipeptide substrates by FAP; design: FAP (amino acids 38-760); FLAG (N); made in house; host or cells: 293 cells (secreted, purified from serum-free conditioned media); conditions: for relative cleavage rate by FAP: N-blocked Gly-Pro-AMCC substrates 6, normalized to N-unblocked Gly-Pro-AMCC, FAP 37 nM
T2 sequence (Q12884 38-760): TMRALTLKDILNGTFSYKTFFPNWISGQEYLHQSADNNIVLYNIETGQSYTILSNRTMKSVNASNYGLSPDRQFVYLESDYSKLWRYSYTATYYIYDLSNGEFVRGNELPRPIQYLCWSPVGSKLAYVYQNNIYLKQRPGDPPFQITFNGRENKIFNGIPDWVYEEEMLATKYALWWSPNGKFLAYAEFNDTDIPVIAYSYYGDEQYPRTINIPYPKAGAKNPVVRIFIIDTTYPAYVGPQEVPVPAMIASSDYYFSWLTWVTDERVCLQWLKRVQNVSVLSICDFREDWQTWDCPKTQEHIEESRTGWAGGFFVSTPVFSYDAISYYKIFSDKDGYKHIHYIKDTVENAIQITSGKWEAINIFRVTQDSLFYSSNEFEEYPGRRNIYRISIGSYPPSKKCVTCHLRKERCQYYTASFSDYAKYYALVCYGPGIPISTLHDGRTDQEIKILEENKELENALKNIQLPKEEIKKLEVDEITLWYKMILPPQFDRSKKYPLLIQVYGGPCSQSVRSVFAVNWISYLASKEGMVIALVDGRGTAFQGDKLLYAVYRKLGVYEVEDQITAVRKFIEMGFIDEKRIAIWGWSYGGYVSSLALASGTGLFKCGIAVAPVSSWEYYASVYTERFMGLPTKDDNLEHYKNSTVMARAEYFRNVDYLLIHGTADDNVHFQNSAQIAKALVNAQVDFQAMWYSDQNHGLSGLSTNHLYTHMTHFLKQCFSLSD
Experimental: as §1, §2, §3, §4

DPP-4 [3] = target: T1, DPP-4; assay: Hydrolysis of C-terminal coumarin dipeptide substrates by DPP-4 (kinetic constants); design: DPP-4 (amino acids 39-766); FLAG (N); made in house; host or cells: 293 cells (secreted, purified from serum-free conditioned media)
Experimental: (§5) The relative cleavage rates by FAP and several dipeptidases of N-blocked (8) and unblocked (7) Gly-Pro dipeptide substrates were measured.
(§6) The cleavage (hydrolysis) rates of various C-terminal coumarin dipeptide substrates 7-16 by FAP and DPP-4 were measured (Tables 4 and 5). The amino-terminus of the substrates was unblocked and the amino acids were varied in Table 4. The amino-terminus of the substrates was blocked and the amino acids were varied in Table 5. To extend the results obtained with the dipeptide substrate library, kinetic parameters were determined for cleavage of the unblocked dipeptide substrates by FAP (Table 4). The catalytic efficiency (kcat/Km) for substrate cleavage was greatest with Ile-Pro-AFC, followed by Ala-Pro-, Gly-Pro- and Phe-Pro-AFC, consistent with the dipeptide substrate library results (FIG. 5). […] Kinetic constants for cleavage of Ala-Pro-AFC and Gly-Pro-AFC by DPP-4 were determined (Table 4). The catalytic efficiency for Ala-Pro-AFC hydrolysis was greater than that for Gly-Pro-AFC, and consistent with the dipeptide library.
as §4
(§7) When saturating amounts of substrate could not be achieved, catalytic efficiencies (kcat/Km) were determined under pseudo-first order conditions ([S]<<the estimated Km) and fit to the following equation: Ln[St/S0]=−kobst, where St is the concentration of substrate remaining at time t, S0 is the initial substrate concentration and kobs is the apparent first order substrate cleavage constant equal to (kcat/Km) times ET, the total enzyme concentration (Copeland, R. (2000) Enzymes, A Practical Introduction to Structure, Mechanism, and Data Analysis, 2nd Ed., John Wiley and Sons, Inc, New York). The linear relationship of Ln[St/S0] versus time allows calculation of kcat/Km by dividing the slope of the plot by ET.

FAP [4] = target: T2, FAP; assay: Hydrolysis of C-terminal coumarin dipeptide substrates by FAP (kinetic constants); design: FAP (amino acids 38-760); FLAG (N); made in house; host or cells: 293 cells (secreted, purified from serum-free conditioned media); conditions: for Km / Kcat: pH 7.4, NC = no cleavage up to 1 mM substrate
Experimental: as §5, §6, §4, §7

DPP-4 [5] = target: T1, DPP-4; assay: Inhibition of DPP-4 by N-blocked boroPro compounds (progress curves); design: DPP-4 (amino acids 39-766); FLAG (N); made in house; host or cells: 293 cells (secreted, purified from serum-free conditioned media); conditions: cleavage of substrate L-Ala-Pro-AFC
Experimental: The steady states of product formation in the absence (V0) and presence of inhibitor (Vi) were used to calculate apparent inhibition constants (Kiapp) by plotting V0/Vi−1 against inhibitor concentration.
Briefly, proteases were added to a reaction mixture containing inhibitor and substrate (Ac-Ala-AMC for APH, Z-Gly-Pro-AMC for POP, and Ala-Pro-AFC for all others) in assay buffer at 23° C. Protease activity was followed continuously as described above to monitor time-dependent inhibition. Data were plotted as V0/Vi−1 versus [I], where V0 is the rate if substrate hydrolysis in the absence of inhibitor, Vi is the steady state rate of substrate hydrolysis in the presence of inhibitor and [I] is the concentration of Ac-Gly-BoroPro.
KI values for inhibition of proteases by 5 were determined using the method of progress curves. Briefly, proteases (10-100 nM) were added to a reaction mixture containing inhibitor 5 (0-10 μM) and substrate AP-AFC in assay buffer at 23° C. […] Data were plotted as V0/Vi−1 versus [I], where V0 is the rate if substrate hydrolysis in the absence of inhibitor, Vi is the steady state rate of substrate hydrolysis in the presence of inhibitor and [I] is the concentration of 5. […] Ki, the true equilibrium inhibition constant was determined according to the following relationship: Ki=Kobs/(1+[S]/Km), where [S] is the concentration of substrate used in the assay and Km is the Michaelis constant for substrate cleavage.

[6] = DPP-4, substrates with unblocked N-termini, 23° C., pH 7.4
[7] = FAP, substrates with unblocked N-termini, 23° C. in 50 mM Tris-HCl, 100 mM NaCl, 1 mM EDTA
[8] = FAP, substrates with unblocked N-termini, 23° C.
[9] = P2-Pro-AMCC substrates, hydrolysis rates normalized to Gly-Pro-AMCC
[10] = FAP, substrates with blocked N-termini, 23° C.

T1 sequence (P27487 39-766): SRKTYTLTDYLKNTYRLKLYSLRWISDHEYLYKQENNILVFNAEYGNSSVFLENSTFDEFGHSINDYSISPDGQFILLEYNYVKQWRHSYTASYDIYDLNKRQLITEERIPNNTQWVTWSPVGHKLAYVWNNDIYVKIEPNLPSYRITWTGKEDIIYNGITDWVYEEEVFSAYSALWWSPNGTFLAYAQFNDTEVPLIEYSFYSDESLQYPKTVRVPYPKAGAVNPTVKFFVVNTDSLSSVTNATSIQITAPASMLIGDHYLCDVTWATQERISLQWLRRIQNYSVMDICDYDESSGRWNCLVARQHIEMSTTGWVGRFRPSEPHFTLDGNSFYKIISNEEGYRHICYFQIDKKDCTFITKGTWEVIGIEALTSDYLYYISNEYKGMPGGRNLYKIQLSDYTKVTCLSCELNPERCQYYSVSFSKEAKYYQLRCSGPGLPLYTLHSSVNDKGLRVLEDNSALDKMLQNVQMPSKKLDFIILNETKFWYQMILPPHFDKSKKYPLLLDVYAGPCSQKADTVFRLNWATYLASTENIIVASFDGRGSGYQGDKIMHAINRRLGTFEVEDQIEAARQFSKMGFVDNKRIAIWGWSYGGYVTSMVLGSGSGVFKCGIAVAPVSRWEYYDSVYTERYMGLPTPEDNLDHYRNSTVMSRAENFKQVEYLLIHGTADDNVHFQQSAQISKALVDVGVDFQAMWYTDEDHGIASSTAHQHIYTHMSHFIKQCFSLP

Row | Molecule | relative cleavage rate by DPP-4 (DPP-4 [1]) | relative cleavage rate by FAP (FAP [2]) | cleavage of N-substituted-Gly-Pro-AMCC substrates by DPP-4 (in words) (DPP-4 [1]) | Km (FAP [4]; [7]) | Kcat (FAP [4]; [8]) | further results
1 | C[C@H](N)C(=O)N1CCC[C@H]1C(=O)Nc1ccc2c(C(F)(F)F)cc(=O)oc2c1 [Ala-Pro-AFC 9, Ala-Pro-7-amino-4-trifluoromethylcoumarin] (H-Ala-Pro-{AFC}) | – | – | – | 244 ± 28 µM | 14.2 ± 0.9 s⁻¹ | Kcat (DPP-4 [3]; [6]): 45.6 ± 1.7 s⁻¹; Km (DPP-4 [3]; [6]): 16 ± 3 µM
2 | Cc1c(CC(N)=O)c(=O)oc2cc(NC(=O)[C@@H]3CCCN3C(=O)[C@@H](C)N)ccc12 [D-Ala] | – | – | – | – | – | Relative Hydrolysis rate by DPP-4 (DPP-4 [1]; [9]): 2; Relative Hydrolysis rate by FAP (FAP [2]; [9]): 0
3 | Cc1cc(=O)oc2cc(NC(=O)[C@H](C)NC(=O)CN)ccc12 [Gly-Ala-AMC 11, Gly-Ala-AMC] (H-Gly-Ala-{AMC}) | – | – | – | – | – | cleavage by FAP (in words) (FAP [4]): not cleaved
4 | CC[C@H](C)[C@H](N)C(=O)N1CCC[C@H]1C(=O)Nc1ccc2c(C(F)(F)F)cc(=O)oc2c1 [Ile-Pro-AFC 13, Ile-Pro-AFC] (H-Ile-Pro-{AFC}) | – | – | – | 106 ± 6 µM | 6.9 ± 0.3 s⁻¹ | Km, fold lower than the other P2-Pro-AFC substrates (FAP [4]; FAP): ~2.5 fold
5 | Cc1cc(=O)oc2cc(NC(=O)C(C)NC(=O)C(N)CCCCN)ccc12 (stereo not drawn) [Lys-Ala-AMC 12, Lys-Ala-AMC] (H-Lys-Ala-{AMC}; configuration not given here) | – | – | – | 189 ± 20 µM | 0.01 ± 0.001 s⁻¹ | catalytic efficiency, fold less than for cleavage of P2-Pro-based peptides (FAP [4]; FAP): 400-1000 fold
6 | CC(=O)N[C@H](C)C(=O)N1CCCC1B(O)O (some centres unmarked) [N-Ac-(D)Ala-boroPro] | – | – | – | – | – | Ki (DPP-4 [5]): > 40 µM
7 | NC(Cc1ccccc1)C(=O)N1CCCC1C(=O)Nc1ccc2c(C(F)(F)F)cc(=O)oc2c1 (stereo not drawn) [Phe-Pro-AFC 10, Phe-Pro-AFC] (H-Phe-Pro-{AFC}; configuration not given here) | – | – | – | 245 ± 22 µM | 1.1 ± 0.1 s⁻¹ | –
8 | Cc1cc(=O)oc2cc(NC(=O)C3CCCN3C(=O)CNC(=O)OCc3ccccc3)ccc12 (stereo not drawn) [Z-Gly-Pro-AMC 14, Benzyloxycarbonyl (Z)-Gly-Pro-7-amino-4-methylcoumarin] (Cbz-Gly-[ξP]-{AMC}) | – | – | – | – | – | DPP-4 activity against substrate (in words) (DPP-4 [3]): little activity; catalytic efficiency, fold lower than that for Gly-Pro-AFC (FAP [4]; FAP): about 3 fold; Kcat (FAP [4]; [10]): <30 s⁻¹; Km (FAP [4]; [10]): > 4 µM
9 | biotinyl-Gly-Pro-AMCC | 0% | 40% | no cleavage | – | – | –
10 | formyl-Gly-Pro-AMCC [HC(═O)] | 7% | 130% | low rate of hydrolysis | – | – | –

Continued, in another order:

Row | relative cleavage rate by DPP-4 (DPP-4 [1]) | relative cleavage rate by FAP (FAP [2]) | cleavage of N-substituted-Gly-Pro-AMCC substrates by DPP-4 (in words) (DPP-4 [1]) | Molecule | Km (FAP [4]; [7]) | Kcat (FAP [4]; [8]) | further results
11 | 0% | 36% | – | O=C(O)c1ccc2c(c1)C(=O)OC21c2ccc(O)cc2Oc2cc(O)ccc21 [5-carboxyfluorescein] | – | – | –
12 | – | – | comparable to Gly-Pro-AMCC | N-methyl-Gly-Pro-AMCC | – | – | –
13 | 0% | 0% | no cleavage | succinyl-Gly-Pro-AMCC [HO2CCH2CH2C(═O)] | – | – | –
